Our source for the IC50 values is patent publication US20220144848A1, “SUBSTITUTED OXOPYRIDINE DERIVATIVES” (Bayer Aktiengesellschaft, priority 2018, published 2022).

The target in test [1] is T1, human factor XIa (Homo sapiens, UniProt P03951).
T1 construct: purchased Kordia
Nature of the test: Measurement of FXIa inhibition (fluorogenic peptide substrate Boc-Glu(OBzl)-Ala-Arg-AMC). It is filed as biochemical. As to conditions: factor XIa from Kordia, 15 min preincubation, 30 min at 22° C., fluorescence; some as mean values from multiple determinations. Here is the method: The factor XIa inhibition of the substances according to the invention is determined using a biochemical test system which utilizes the reaction of a peptidic factor XIa substrate to determine the enzymatic activity of human factor XIa. Here, factor XIa cleaves from the peptidic factor XIa substrate the C-terminal aminomethylcoumarin (AMC), the fluorescence of which is measured. The determinations are carried out in microtitre plates.
Test substances are dissolved in dimethyl sulfoxide and serially diluted in dimethyl sulfoxide (3000 μM to 0.0078 μM; resulting final concentrations in the test: 50 μM to 0.00013 μM). In each case 1 μl of the diluted substance solutions is placed into the wells of white microtitre plates from Greiner (384 wells). 20 μl of assay buffer (50 mM of Tris/HCl pH 7.4; 100 mM of sodium chloride; 5 mM of calcium chloride; 0.1% of bovine serum albumin) and 20 μl of factor XIa from Kordia (0.45 nM in assay buffer) are then added successively. After 15 min of incubation, the enzyme reaction is started by addition of 20 μl of the factor XIa substrate Boc-Glu(OBzl)-Ala-Arg-AMC dissolved in assay buffer (10 μM in assay buffer) from Bachem, the mixture is incubated at room temperature (22° C.) for 30 min and fluorescence is then measured (excitation: 360 nm, emission: 460 nm). The measured emissions of the test batches with test substance are compared to those of control batches without test substance (only dimethyl sulfoxide instead of test substance in dimethyl sulfoxide), and IC50 values are calculated from the concentration/activity relationships.

Test [2] addresses T2, human plasma kallikrein (Homo sapiens, UniProt P03952).
T2 construct: purchased Kordia
Description: Determination of the plasma kallikrein activity (fluorogenic peptide substrate H-Pro-Phe-Arg-AMC). It is filed as biochemical. As to conditions: plasma kallikrein from Kordia, 15 min preincubation, 30 min at 22° C., fluorescence; some as mean values from multiple determinations. The procedure:
To determine the plasma kallikrein inhibition of the substances according to the invention, a biochemical test system is used which utilizes the reaction of a peptidic plasma kallikrein substrate to determine the enzymatic activity of human plasma kallikrein. Here, plasma kallikrein cleaves from the peptidic plasma kallikrein substrate the C-terminal aminomethylcoumarin (AMC), the fluorescence of which is measured. The determinations are carried out in microtitre plates.
Test substances are dissolved in dimethyl sulfoxide and serially diluted in dimethyl sulfoxide (3000 μM to 0.0078 μM; resulting final concentrations in the test: 50 μM to 0.00013 μM). In each case 1 μl of the diluted substance solutions is placed into the wells of white microtitre plates from Greiner (384 wells). 20 μl of assay buffer (50 mM Tris/HCl pH 7.4; 100 mM sodium chloride solution; 5 mM of calcium chloride solution; 0.1% of bovine serum albumin) and 20 μl of plasma kallikrein from Kordia (0.6 nM in assay buffer) are then added successively. After 15 min of incubation, the enzyme reaction is started by addition of 20 μl of the substrate H-Pro-Phe-Arg-AMC dissolved in assay buffer (10 μM in assay buffer) from Bachem, the mixture is incubated at room temperature (22° C.) for 30 min and fluorescence is then measured (excitation: 360 nm, emission: 460 nm). The measured emissions of the test batches with test substance are compared to those of control batches without test substance (only dimethyl sulfoxide instead of test substance in dimethyl sulfoxide), and IC50 values are calculated from the concentration/activity relationships. Activity data from this test are listed in Table B below (some as mean values from multiple independent individual determinations): […]

T2 sequence (P03952 391-638 limits assumed): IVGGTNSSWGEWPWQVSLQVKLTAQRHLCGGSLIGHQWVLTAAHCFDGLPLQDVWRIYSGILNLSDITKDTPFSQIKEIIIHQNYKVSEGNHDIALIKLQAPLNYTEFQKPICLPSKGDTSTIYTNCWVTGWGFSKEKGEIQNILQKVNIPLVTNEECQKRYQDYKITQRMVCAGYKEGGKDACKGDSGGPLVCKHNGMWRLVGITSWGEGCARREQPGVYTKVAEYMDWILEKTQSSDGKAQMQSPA
T2 sequence (P03952 20-390 partner limits assumed): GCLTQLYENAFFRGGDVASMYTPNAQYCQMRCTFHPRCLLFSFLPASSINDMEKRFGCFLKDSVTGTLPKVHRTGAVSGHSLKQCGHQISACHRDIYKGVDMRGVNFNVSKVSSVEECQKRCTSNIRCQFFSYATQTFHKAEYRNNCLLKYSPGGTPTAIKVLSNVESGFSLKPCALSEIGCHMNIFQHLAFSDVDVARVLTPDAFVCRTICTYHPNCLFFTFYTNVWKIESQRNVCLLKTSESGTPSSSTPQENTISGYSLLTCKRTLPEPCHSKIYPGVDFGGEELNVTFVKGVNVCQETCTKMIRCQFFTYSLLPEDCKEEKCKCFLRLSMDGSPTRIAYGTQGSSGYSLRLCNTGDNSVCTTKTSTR
T1 sequence (P03951 388-625 limits assumed): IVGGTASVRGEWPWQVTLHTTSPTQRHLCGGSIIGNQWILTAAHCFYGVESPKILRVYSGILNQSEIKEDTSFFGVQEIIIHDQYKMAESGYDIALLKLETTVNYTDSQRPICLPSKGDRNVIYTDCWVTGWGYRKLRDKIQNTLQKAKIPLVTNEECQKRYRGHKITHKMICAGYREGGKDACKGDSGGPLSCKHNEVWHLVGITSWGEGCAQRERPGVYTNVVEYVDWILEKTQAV
T1 sequence (P03951 19-387 partner limits assumed): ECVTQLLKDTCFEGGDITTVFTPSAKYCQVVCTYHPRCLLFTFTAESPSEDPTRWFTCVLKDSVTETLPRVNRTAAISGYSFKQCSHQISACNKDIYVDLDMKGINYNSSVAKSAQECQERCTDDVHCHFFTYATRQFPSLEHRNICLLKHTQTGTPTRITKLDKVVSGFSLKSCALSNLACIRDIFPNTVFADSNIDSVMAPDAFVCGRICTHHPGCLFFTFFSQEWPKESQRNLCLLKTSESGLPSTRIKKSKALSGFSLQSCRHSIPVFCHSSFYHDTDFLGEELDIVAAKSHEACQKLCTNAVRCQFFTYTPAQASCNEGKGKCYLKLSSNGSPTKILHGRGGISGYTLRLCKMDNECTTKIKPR

As for `C[C@@H]1Cc2ccc(Cl)cc2-c2cc(=O)n([C@@H](C[C@@H]3CCCCO3)C(=O)Nc3ccc(C(N)=O)c(F)c3)cc2[C@H](C)O1` (single isomer, unassigned) [Example 72], the values for the IC50 in test [1] and in test [2] were 2.5 nM and 65 nM, respectively.
In the same order, the values of `C[C@@H]1Cc2ccc(Cl)cc2-c2cc(=O)n([C@@H](CCOC(C)(C)C)C(=O)Nc3ccc(C(N)=O)c(F)c3)cc2CO1` (single isomer, unassigned) [Example 22] are 19 nM and 280 nM.
The matching figures for `CC[C@@H](C(=O)Nc1ccc(C(N)=O)cc1)n1cc2c(cc1=O)-c1c(ccc(Cl)c1F)C[C@@H](C)O[C@H]2C` (single isomer, unassigned) [Example 75]: 5.9 nM and 40 nM.
In the same order, the values of `CC[C@@H](C(=O)Nc1ccc(C(N)=O)cc1)n1cc2c(cc1=O)-c1c(ccc(Cl)c1F)C[C@@H](C)OC2` (single isomer, unassigned) [Example 28] are 12 nM and 190 nM.
On to `C[C@@H]1Cc2ccc(Cl)cc2-c2cc(=O)n([C@@H](C[C@@H]3CCCCO3)C(=O)Nc3ccc(C(N)=O)cc3)cc2[C@H](C)O1` (single isomer, unassigned) [Example 73], for which the IC50 in test [1] is 0.8 nM; in test [2], 27 nM.
The matching figures for `CC(C)C1Cc2ccc(Cl)cc2-c2cc(=O)n(C(C[C@@H]3COCCO3)C(=O)Nc3ccc(C(N)=O)c(F)c3)cc2CO1` (mixture of isomers) [Example 40, 4-({2-(11-Chloro-7-isopropyl-2-oxo-7,8-dihydro-2H-[3]benzoxocino[5,6-c]pyridin-3(5H)-yl)-3-[(2R)-1,4-dioxan-2-yl]propanoyl}amino)-2-fluorobenzamide]: 41 nM and 4800 nM.
The matching figures for `CO[C@H](C[C@@H](C(=O)Nc1ccc(C(N)=O)cc1)n1cc2c(cc1=O)-c1cc(Cl)ccc1C[C@@H](C)OC2)C1CC1` (single isomer, unassigned) [Example 14]: 3.9 nM and 220 nM.
In the same order, the values of `CO[C@@H](C)CC(C(=O)Nc1ccc(C(N)=O)cc1)n1cc2c(cc1=O)-c1cc(Cl)ccc1C[C@@H](C(F)(F)F)OC2` (mixture of isomers) [Example 66, 4-({(4S)-2-[(7S)-11-Chloro-2-oxo-7-(trifluoromethyl)-7,8-dihydro-2H-[3]benzoxocino[5,6-c]pyridin-3(5H)-yl]-4-methoxypentanoyl}amino)benzamide] are 5.1 nM and 320 nM.
Take `NC(=O)c1ccc(NC(=O)C(C[C@@H]2CCCCO2)n2cc3c(cc2=O)-c2cc(Cl)ccc2CC(C(F)(F)F)OC3)cn1` (mixture of isomers) [Example 52, 5-({2-[11-Chloro-2-oxo-7-(trifluoromethyl)-7,8-dihydro-2H-[3]benzoxocino[5,6-c]pyridin-3(5H)-yl]-3-[(2S)-tetrahydro-2H-pyran-2-yl]propanoyl}amino)pyridine-2-carboxamide]: the results for the half-inhibitory concentration (IC50) in test [1] and in test [2] were 6.5 nM and 790 nM, respectively.
The matching figures for `NC(=O)c1ccc(NC(=O)C(C[C@@H]2CCCCO2)n2cc3c(cc2=O)-c2cc(Cl)ccc2CC(C(F)(F)F)OC3)cc1` (mixture of isomers) [Example 54, 4-({2-[11-Chloro-2-oxo-7-(trifluoromethyl)-7,8-dihydro-2H-[3]benzoxocino[5,6-c]pyridin-3(5H)-yl]-3-[(2S)-tetrahydro-2H-pyran-2-yl]propanoyl}amino)benzamide]: 2.8 nM and 400 nM.
Take `CC(C)[C@@H]1Cc2ccc(Cl)cc2-c2cc(=O)n([C@@H](C[C@@H]3COCCO3)C(=O)Nc3ccc4nn(C)nc4c3)cc2CO1` (single isomer, unassigned) [Example 45]: the half-inhibitory concentration (IC50) in test [1] was 17 nM; in test [2] it was 660 nM.
Turning to `NC(=O)c1ccc(NC(=O)[C@H](C[C@@H]2COCCO2)n2cc3c(cc2=O)-c2cc(Cl)ccc2C[C@@H](C(F)(F)F)OC3)cc1` (single isomer, unassigned) [Example 59], the figures for the IC50 in test [1] and in test [2] were 0.9 nM and 89 nM, respectively.
With `CC1Cc2ccc(Cl)cc2-c2cc(=O)n(C(C[C@@H]3CCCCO3)C(=O)Nc3ccc(C(N)=O)nc3)cc2CO1` (mixture of isomers) [Example 3, 5-{2-(11-Chloro-7-methyl-2-oxo-7,8-dihydro-2H-[3]benzoxocino[5,6-c]pyridin-3(5H)-yl)-3-[(2S)-tetrahydro-2H-pyran-2-yl]propanamido}pyridine-2-carboxamide], the IC50 was 6 nM in test [1] and 510 nM in test [2].
The matching figures for `C[C@@H]1Cc2ccc(Cl)cc2-c2cc(=O)n([C@@H](C)C(=O)Nc3ccc(C(N)=O)cc3)cc2CO1` (single isomer, unassigned) [Example 76]: 9.8 nM and 190 nM.
As to `CC(C)[C@@H]1Cc2ccc(Cl)cc2-c2cc(=O)n([C@@H](C[C@@H]3COCCO3)C(=O)Nc3ccc(C(N)=O)c(F)c3)cc2CO1` (single isomer, unassigned) [Example 41], the IC50 in test [1] worked out at 10 nM; in test [2], 1600 nM.
The matching figures for `NC(=O)c1ccc(NC(=O)[C@H](C[C@@H]2CCCCO2)n2cc3c(cc2=O)-c2cc(Cl)ccc2C[C@@H](C(F)(F)F)OC3)cc1F` (single isomer, unassigned) [Example 51]: 4.2 nM and 360 nM.
With `CC[C@@H](C(=O)Nc1ccc(C(N)=O)c(F)c1)n1cc2c(cc1=O)-c1cc(Cl)ccc1C[C@@H](C(F)F)OC2` (single isomer, unassigned) [Example 47], the IC50 in test [1] came out at 56 nM; in test [2], 1500 nM.
In the same order, the values of `NC(=O)c1ccc(NC(=O)[C@H](C[C@@H]2CCCCO2)n2cc3c(cc2=O)-c2cc(Cl)ccc2C[C@@H](C(F)(F)F)OC3)cn1` (single isomer, unassigned) [Example 53] are 2.3 nM and 300 nM.
In the same order, the values of `C[C@@H]1Cc2ccc(Cl)cc2-c2cc(=O)n([C@@H](CCOC3CC3)C(=O)Nc3ccc(C(N)=O)cc3)cc2CO1` (single isomer, unassigned) [Example 27] are 6.6 nM and 71 nM.
Take `C[C@@H]1Cc2ccc(Cl)cc2-c2cc(=O)n([C@@H](CCOC(F)F)C(=O)Nc3ccc(C(N)=O)cc3)cc2CO1` (single isomer, unassigned) [Example 17]: the figures for the half-inhibitory concentration (IC50) in test [1] and in test [2] were 2 nM and 72 nM, respectively.
Regarding `CC1Cc2ccc(Cl)cc2-c2cc(=O)n(C(C[C@@H]3CCCCO3)C(=O)Nc3ccc(C(N)=O)cc3)cc2CO1` (mixture of isomers) [Example 5, 4-({2-(11-Chloro-7-methyl-2-oxo-7,8-dihydro-2H-[3]benzoxocino[5,6-c]pyridin-3(5H)-yl)-3-[(2S)-tetrahydro-2H-pyran-2-yl]propanoyl}amino)benzamide], the IC50 is 4.3 nM in test [1] and 400 nM in test [2].
With `NC(=O)c1ccc(NC(=O)[C@H](C[C@@H]2CCCCO2)n2cc3c(cc2=O)-c2cc(Cl)ccc2C[C@@H](C(F)F)OC3)cc1F` (single isomer, unassigned) [Example 49], the figures for the half-maximal inhibitory concentration (IC50) in test [1] and in test [2] were 4.7 nM and 370 nM, respectively.
In the same order, the values of `NC(=O)c1ccc(NC(=O)[C@H](C[C@@H]2COCCO2)n2cc3c(cc2=O)-c2cc(Cl)ccc2C[C@@H](C(F)(F)F)OC3)cc1F` (single isomer, unassigned) [Example 57] are 3.8 nM and 310 nM.
The matching figures for `CO[C@@H](C)C[C@@H](C(=O)Nc1ccc(C(N)=O)cc1)n1cc2c(cc1=O)-c1c(ccc(Cl)c1F)C[C@@H](C)O[C@H]2C` (single isomer, unassigned) [Example 79]: 26 nM and 250 nM.
